From patent publication US20130079394A1, “Indirect modeling of new repellent molecules active against insects, acarids, and other arthropods” (CNRS (CENTRE NATIONAL RECHERCHE SCIENTIFIQUE), priority 2011, published 2013)

What was measured:
flies = assay: Repellency index of coumarin derivatives evaluated in vivo (index from −1 to 1, function of a number of flies); design: key to Repellency Index: index from −1 to 1, 1 = highly repellent; conditions: for Repellency Index: experimental index ranging from −1 to 1 (1 = highly repellent), measurement error about ±0.1, data set of USSN 61,501,485; for repellency index (RI) of reference repellents: values used as class thresholds
Description: Up until now, all existing models for repellency have been based on protection time value, which is different for each. Moreover, the environmental parameters in which the animals are studied are frequently different. As a consequence, data produced using different models cannot be combined/compared. […] The numerical value obtained was not a protection time but rather an index ranging from −1 to 1 (with 1 being highly repellent). This number was calculated for each experiment and is function of a number of flies.
To minimize the deleterious effects of these potentially confounding factors, “repellency classes” were established. Based on the repellency index values, the dataset was divided into 2, 3, 4 or 5 repellency class subsets, in order to reduce the difficulty of modeling the property of slightly repellent molecules. For example, in the four classes' models, the thresholds between the classes are defined as follow: […]

mosquitoes = conditions: absence of body odor attractants such as 1-octen-3-ol, lactic acid, or carbon dioxide; cited from earlier work
[1] = reported by US EPA (RED); cited from earlier work

SMILES	Repellency Index (flies)	also measured
CCC(C)OC(=O)COc1ccc2ccc(=O)oc2c1 (stereo not drawn) [EV 06178]	0.25	–
CCN(CC)C(=O)COc1ccc2ccc(=O)oc2c1 [EV 05096]	0.80	–
CC(C)COC1CCC2CCC(=O)OC2C1 (stereo not drawn) [EV 04188]	0.65	–
CCCCC(CC)C(=O)Oc1ccc2ccc(=O)oc2c1 (stereo not drawn) [EV 04016]	0.11	–
CC(C)Oc1ccc2ccc(=O)oc2c1 [EV 04054]	0.66	–
CCC(C)Oc1ccc2ccc(=O)oc2c1 (stereo not drawn) [EV 04070]	0.83	–
C/C=C(\C)C(=O)Oc1ccc2ccc(=O)oc2c1 [EV 04024]	0.26	–
O=C(c1ccc2ccc(=O)oc2c1)N1CCCCC1 [EV 05118]	−0.10	–
CC1CCCCN1C(=O)COc1ccc2ccc(=O)oc2c1 (stereo not drawn) [EV 05134]	0.78	–
CCC(C)OC(=O)COc1ccc2ccc(=O)oc2c1 (stereo not drawn) [EV 06046]	0.08	–
CC(C)(C)COc1ccc2ccc(=O)oc2c1 [EV 06162]	−0.55	–
C=C(C)C1CC=C(COc2ccc3ccc(=O)oc3c2)CC1 (stereo not drawn) [EV 04090]	0.40	–
CCC(C)OC(=O)N1CCCCC1CCOc1ccc2ccc(=O)oc2c1 (stereo not drawn) [EV 04042]	0.43	–
CC(C)COc1ccc2oc(=O)ccc2c1 [EV07072]	0.98	–
CC(C)COc1cc(=O)oc2ccccc12 [EV07070]	0.94	–
CCN(CC)C(=O)c1ccc2ccc(=O)oc2c1 [EV 05084]	0.30	–
CCC(C)OC(=O)N1CCCCC1CCO (stereo not drawn) [Picaridine, reference compound]	–	repellency index (RI) of reference repellents (flies): 0.70
CCCCOc1ccc2ccc(=O)oc2c1 [EV 04036]	−0.06	–
CCCC(C)Oc1ccc2oc(=O)ccc2c1 (stereo not drawn) [EV 06154]	0.93	–
CCC(C)Oc1ccc2ccc(=O)oc2c1 (stereo not drawn) [EV 06188]	0.87	–

SMILES	Repellency Index (flies)	also measured
CC(C)C(C)Oc1cc(=O)oc2ccccc12 (stereo not drawn) [EV 06128]	0.34	–
CCCCCCC(C)Oc1ccc2ccc(=O)oc2c1 (stereo not drawn) [EV 06148]	0.92	–
CCC(C)CC(=O)Oc1ccc2ccc(=O)oc2c1 (stereo not drawn) [EV 04062]	0.04	–
CCC(C)Oc1cc(=O)oc2ccccc12 (stereo not drawn) [EV 06088]	0.82	–
CCN(CC)C(=O)c1cccc(C)c1 [DEET, N,N-Diethyl-meta-toluamide]	–	repellent activity in a behavioral test (mosquitoes): strong repellent activity; deaths among DEET-associated seizure cases [1]: 4 deaths; repellency index (RI) of reference repellents (flies): 0.83
CCC(CC)Oc1ccc2ccc(=O)oc2c1 [EV 04114]	0.86	–
CCCC(C)Oc1cc(=O)oc2ccccc12 (stereo not drawn) [EV 06098]	0.95	–
CCC(C)C(=O)Oc1ccc2ccc(=O)oc2c1 (stereo not drawn) [EV 04030]	−0.10	–
CCCCCCCCN(CCCCCCCC)C(=O)COc1ccc2ccc(=O)oc2c1 [EV 06092]	0.35	–
CCCCCOc1ccc2ccc(=O)oc2c1 [EV 06026]	0.88	–
CCCCCCOc1ccc2ccc(=O)oc2c1 [EV 06110]	0.78	–
C=CCOc1ccc2ccc(=O)oc2c1 [EV 04032]	0.19	–
CC(=O)OC(C)C(=O)Oc1ccc2ccc(=O)oc2c1 (stereo not drawn) [EV 04122]	−0.36	–
CCC(C)Oc1ccc2oc(=O)ccc2c1 (stereo not drawn) [EV 06068]	0.88	–
CCC(CC)Cc1cc(=O)oc2ccccc12 [EV 06062]	0.97	–
CCCCCOc1cc(=O)oc2ccccc12 [EV 06136]	0.77	–
CCC(C)COC(=O)COc1ccc2ccc(=O)oc2c1 (stereo not drawn) [EV 06058]	0.52	–
CCCCN(CCCC)C(=O)COc1ccc2ccc(=O)oc2c1 [EV 05120]	0.71	–
CCCCN(CCCC)C(=O)c1ccc2ccc(=O)oc2c1 [EV 05138]	0.72	–
CC(C)CCOc1cc(=O)oc2ccccc12 [EV 06140]	0.84	–

SMILES	Repellency Index (flies)	also measured
CC(C)C(C)Oc1ccc2ccc(=O)oc2c1 (stereo not drawn) [EV 06028]	0.88	–
CCCCCCCCOc1ccc2ccc(=O)oc2c1 [EV 06144]	0.83	–
CCC(C)NC(=O)c1ccc2ccc(=O)oc2c1 (stereo not drawn) [EV 06166]	0.25	–
CCCCCCCCN(CCCCCCCC)C(=O)COc1cc(=O)oc2ccccc12 [EV 07068]	0.98	–
CCCCCCC(C)Oc1cc(=O)oc2ccccc12 (stereo not drawn) [EV07078]	0.91	–
CCC(CC)Oc1ccc2oc(=O)ccc2c1 [EV 06018]	0.43	–
CCC(CC)OC(=O)COc1ccc2ccc(=O)oc2c1 [EV 05174]	0.69	–
CCC(C)OC(=O)c1ccc2ccc(=O)oc2c1 (stereo not drawn) [EV 05178]	0.71	–
CCC(C)COc1ccc2ccc(=O)oc2c1 (stereo not drawn) [EV 04094]	0.73	–
CCC(C)Oc1ccc2ccc(=O)oc2c1 (stereo not drawn) [EV 04058]	0.76	–
CC(C)CCOc1ccc2ccc(=O)oc2c1 [EV 06036]	0.73	–
CCCCCCCCN(CCCCCCCC)C(=O)c1ccc2ccc(=O)oc2c1 [EV 06096]	0.91	–
COC(=O)/C=C/c1ccccc1O [EV 05056]	0.40	–
CCC(CC)OC(=O)c1ccc2ccc(=O)oc2c1 [EV 05162]	0.62	–
CC1CCCCC1Oc1ccc2ccc(=O)oc2c1 (stereo not drawn) [EV 04084]	−0.01	–
O=C(COc1ccc2ccc(=O)oc2c1)N1CCCCC1 [EV 05088]	0.07	–
CC1CCCCN1C(=O)c1ccc2ccc(=O)oc2c1 (stereo not drawn) [EV 05144]	0.60	–
CCCC(C)Oc1ccc2ccc(=O)oc2c1 (stereo not drawn) [EV 06044]	0.92	–
